Where a name gives a salt, the structure may show the parent alone.
How the values were obtained:
[1] = test system: SB.mhdgc-1; experiment: viability at highest tested concentration (MAXR) relative to DMSO; higher = less cytotoxic; settings: SB.mhdgc-1 (hereditary c.1380delA CDH1 gastric cancer)
How it was run: (§1)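 Each entry is viability relative to DMSO, given either at the highest concentration tested or as a trapezoidal area under the curve. Gastric cancer cells from hereditary or sporadic patients (500 cells in 5 μL medium per 1536 well) received compound in DMSO at 11 threefold-diluted concentrations, 23 nL by pintool. Luminescence from CellTiter-Glo was read after 48 h.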

[2] = test system: SB.msgc-1; experiment: as above; settings: SB.msgc-1 (sporadic gastric cancer)
How it was run: as §1

[3] = test system: SB.mhdgc-1; experiment: area under the dose-response curve of % viability (trapezoidal, 11 doses) (% viability x log10 concentration); higher = less cytotoxic; settings: SB.mhdgc-1 (hereditary c.1380delA CDH1 gastric cancer)
How it was run: as §1

[4] = test system: SB.msgc-1; experiment: as above; settings: SB.msgc-1 (sporadic gastric cancer)
How it was run: as §1

| Structure (SMILES) | viability [1] | viability [2] | area under the dose-response curve [3] | area under the dose-response curve [4] |
| --- | --- | --- | --- | --- |
| CN[C@@H]1Cc2cccc3[nH]c(=O)n(c23)C1 [Sumanirole maleate] (top concentration 46.0829 µM) | 84.2% | 91.7% | 508 | 522 |
| CN[S+](=O)([O-])Cc1ccc2[nH]cc(CCN(C)C)c2c1 [Sumatriptan succinate] (top concentration 46.0829 µM) | 79.8% | 97.6% | 558 | 519 |
| CCN(CC)CCNC(=O)c1c(C)[nH]c(/C=C2\C(=O)Nc3ccc(F)cc32)c1C [Sunitinib malate] (top concentration 92.1659 µM) | 1.85% | 3.83% | 382 | 458 |
| CCOCC(O)COc1ccc(NC(=O)CC[S+](C)C)cc1 (stereo not drawn) [Suplatast tosilate] (top concentration 46.0829 µM) | 83.4% | 97.7% | 433 | 478 |
| Cc1ccc(C(=O)Nc2ccc([S+](=O)([O-])O)c3cc([S+](=O)([O-])O)cc([S+](=O)([O-])O)c23)cc1NC(=O)c1cccc(NC(=O)Nc2cccc(C(=O)Nc3cc(C(=O)Nc4ccc([S+](=O)([O-])O)c5cc([S+](=O)([O-])O)cc([S+](=O)([O-])O)c45)ccc3C)c2)c1 [Suramin sodium] (top concentration 46.0829 µM) | 89.1% | 70% | 480 | 474 |
| CNCC(O)c1ccc(O)cc1 (stereo not drawn) [Synephrine] (top concentration 46.0829 µM) | 122% | 110% | 542 | 560 |
| COc1cc(N2CCC(N3CCN(C)CC3)CC2)ccc1Nc1ncc(Cl)c(Nc2ccccc2[S+](=O)([O-])C(C)C)n1 [TAE-684] (top concentration 46.0829 µM) | 2.06% | 28.8% | 221 | 343 |
| CC(C)(O)CC(=O)NCCn1ccc2ncnc(Nc3ccc(Oc4cccc(C(F)(F)F)c4)c(Cl)c3)c21 [TAK-285] (top concentration 46.0829 µM) | 9.61% | 22.4% | 428 | 298 |
| CCc1nc(-c2cccc(C)c2)c(-c2ccnc(NC(=O)c3ccccc3)c2)s1 [TAK-715] (top concentration 46.0829 µM) | 52.5% | 39.3% | 452 | 489 |
| CN1C(=O)/C(=C(NC2=CC=C(I)C=C2F)\C3=C1\N=C/N(C[C@@H](O)CO)C3=O)F [TAK-733] (top concentration 46.0829 µM) | 34.3% | 47.1% | 317 | 407 |
| Cc1cc(OCCC[S+](C)(=O)[O-])cc(C)c1-c1cccc(COc2ccc3c(c2)OC[C@H]3CC(=O)O)c1 [TAK-875] (top concentration 46.0829 µM) | 82.2% | 49% | 545 | 488 |
| CC[S+](=O)([O-])c1cccc(-c2cc(C(=O)NC3CCN(C)CC3)c(C)c3[nH]c4ncc(C)cc4c23)c1 [TAK-901] (top concentration 46.0829 µM) | 44.2% | 49.1% | 383 | 482 |
| O=C(NNC(=O)c1ccc(CN[S+](=O)([O-])c2ccc(F)c(Cl)c2)cc1)c1ccccc1 [TCN-201] (top concentration 46.0829 µM) | 103% | 98.1% | 554 | 495 |
| N#Cc1c(NC(=O)c2cccc3ccccc23)sc2c1CCCC2 [TCS JNK 5a] (top concentration 46.0829 µM) | 62.6% | 37.7% | 476 | 404 |
| Oc1ccc(-c2ccc(-c3cc(Nc4cccc(CNC5CC5)c4)[nH]n3)cc2)c(O)c1 [TCS-2312] (top concentration 46.0829 µM) | 40.3% | 31.8% | 381 | 480 |
| Cc1cnc(Nc2ccc(CN3CCOCC3)cc2)nc1Nc1cccc([S+](=O)([O-])NC(C)(C)C)c1 [TG-46] (top concentration 46.0829 µM) | 2.85% | 5.45% | 392 | 393 |
| Cc1cnc(Nc2cccc(CN3CCOCC3)c2)nc1Nc1cccc([S+](=O)([O-])NC(C)(C)C)c1 [TG-89] (top concentration 46.0829 µM) | 6.02% | 14.5% | 434 | 439 |
| CC(NC1=CC=CC=C1)C\2=C\C(=C/N3C(=O)\C=C(/N=C23)N4CCOCC4)C (stereo not drawn) [TGX-221] (top concentration 46.0829 µM) | 34.9% | 47.8% | 324 | 428 |
| NC(=O)Nc1sc(-c2ccc(F)cc2)cc1C(N)=O [TPCA-1] (top concentration 46.0829 µM) | 3.19% | 48.3% | 298 | 446 |
| Cc1ccc([S+](=O)([O-])N[C@@H](Cc2ccccc2)C(=O)CCl)cc1 [TPCK] (top concentration 46.0829 µM) | 6.16% | 19% | 497 | 498 |
| Clc1ccccc1C(c1ccccc1)(c1ccccc1)n1cccn1 [TRAM-34] (top concentration 46.0829 µM) | 66.9% | 39.8% | 513 | 441 |

| Structure (SMILES) | viability [1] | viability [2] | area under the dose-response curve [3] | area under the dose-response curve [4] |
| --- | --- | --- | --- | --- |
| CC(C)c1ccccc1Cc1cc(C(=O)Nc2ccc([S+](=O)([O-])c3ccccc3C(C)(C)C)cc2)c(O)c(O)c1O [TW-37] (top concentration 46.0829 µM) | 24.2% | 22.5% | 498 | 481 |
| Nc1cccc(-c2cc3c(Oc4cccc(O)c4)ncnc3[nH]2)c1 [TWS-119] (top concentration 46.0829 µM) | 48% | 32.8% | 456 | 522 |
| Nc1c2c(nc3ccccc13)CCCC2 [Tacrine hydrochloride] (top concentration 46.0829 µM) | 125% | 119% | 627 | 583 |
| CN1CC(=O)N2[C@H](c3ccc4c(c3)OCO4)c3[nH]c4ccccc4c3C[C@@H]2C1=O [Tadalafil] (top concentration 46.0829 µM) | 107% | 25.6% | 549 | 280 |
| N#CC1(c2cccc(C(=O)Nc3cc(Oc4ccc5nc(NC(=O)C6CC6)sc5n4)ccc3F)c2Cl)CC1 [Takeda-6d] (top concentration 46.0829 µM) | 68.7% | 62.4% | 496 | 434 |
| C[C@@H]1CN(Cc2ccc(F)cc2)[C@@H](C)CN1C(=O)c1cc2c(C(=O)C(=O)N(C)C)cn(C)c2cc1Cl [Talmapimod] (top concentration 46.0829 µM) | 41.1% | 74.1% | 441 | 490 |
| CN1C(=O)C[C@H](C(=O)N[C@@H](Cc2cnc[nH]2)C(=O)N2CCC[C@H]2C(N)=O)NC1=O [Taltirelin] (top concentration 46.0829 µM) | 109% | 121% | 659 | 563 |
| CC1(C)CCC(C)(C)c2cc(NC(=O)c3ccc(C(=O)O)cc3)ccc21 [Tamibarotene] (top concentration 46.0829 µM) | 104% | 61.8% | 561 | 439 |
| CC/C(=C(\c1ccccc1)c1ccc(OCCN(C)C)cc1)c1ccccc1 [Tamoxifen] (top concentration 46.0829 µM) | 23.9% | 57.5% | 522 | 475 |
| CCOc1ccccc1OCCNC(C)Cc1ccc(OC)c([S+](N)(=O)[O-])c1 (stereo not drawn) [Tamsulosin hydrochloride] (top concentration 46.0829 µM) | 111% | 105% | 531 | 543 |
| COc1cc2c(N3CCN(C(=O)Nc4ccc(OC(C)C)cc4)CC3)ncnc2cc1OCCCN1CCCCC1 [Tandutinib] (top concentration 46.0829 µM) | 7.84% | 60.2% | 342 | 478 |
| C=CCNC1=C2C[C@@H](C)C[C@H](OC)[C@H](O)[C@@H](C)/C=C(\C)[C@H](OC(N)=O)[C@@H](OC)/C=C\C=C(/C)C(=O)NC(=CC1=O)C2=O [Tanespimycin] (top concentration 46.0829 µM) | 3.64% | 18.5% | 363 | 326 |
| Cc1coc2c1C(=O)C(=O)c1c-2ccc2c1CCCC2(C)C [Tanshinone IIA] (top concentration 46.0829 µM) | 3.57% | 20.8% | 418 | 501 |
| Cc1coc2c1C(=O)C(=O)c1c-2ccc2c(C)cccc12 [Tanshinone I] (top concentration 46.0829 µM) | 34.1% | 115% | 501 | 541 |
| COc1cc2c(cc1OC)CN(CCc1ccc(NC(=O)c3cc(OC)c(OC)cc3NC(=O)c3cnc4ccccc4c3)cc1)CC2 [Tariquidar] (top concentration 46.0829 µM) | 32.1% | 31.5% | 498 | 482 |
| NCCS(=O)(=O)O [Taurine] (top concentration 46.0829 µM) | 79% | 101% | 549 | 578 |
| O=C1c2c(O)cc(O)cc2OC(c2ccc(O)c(O)c2)C1O (stereo not drawn) [Taxifolin] (top concentration 46.0829 µM) | 117% | 87.4% | 488 | 499 |
| CCOC(=O)c1ccc(C#Cc2ccc3c(c2)C(C)(C)CCS3)nc1 [Tazarotene] (top concentration 46.0829 µM) | 54.9% | 98.1% | 533 | 515 |
| C[C@@H](O)[C@@H]1[C@H]2[C@@H](C)\C(=C(/N2C1=O)C(=O)OCOC(=O)C(C)(C)C)SC3CN(C3)/C4=N/CCS4 [Tebipenem pivoxil] (top concentration 46.0829 µM) | 115% | 91.9% | 530 | 529 |
| O=c1[nH]c(=O)n(C2CCCO2)cc1F (stereo not drawn) [Tegafur] (top concentration 92.1659 µM) | 63.8% | 87% | 555 | 554 |
| CCCCCNC(=N)N/N=C/c1c[nH]c2ccc(OC)cc12 [Tegaserod maleate] (top concentration 46.0829 µM) | 20.9% | 35.6% | 438 | 442 |

Reference: the supplement of paper PMC5412046
